Measured values as given in ChEMBL document CHEMBL4808179 (Bioorg Med Chem Lett, 2021).
≈ marks a conversion by molar mass, not a printed value.

Key:
[1] = system: Enterococcus faecium; assay: Antibacterial activity against vancomycin resistant Enterococcus faecium Van B V(R) assessed as inhibition of bacterial growth; type: functional
[2] = system: Staphylococcus aureus; assay: Antibacterial activity against methicillin-resistant Staphylococcus aureus USA300 assessed as bacterial growth inhibition; type: functional
[3] = system: Enterococcus faecium; assay: Antibacterial activity against vancomycin resistant Enterococcus faecium Van A HS-0649 assessed as inhibition of bacterial growth; type: functional
[4] = system: Enterococcus faecium; assay: Antibacterial activity against vancomycin resistant Enterococcus faecium Van M HS-0847 assessed as inhibition of bacterial growth; type: functional
[5] = system: Acinetobacter baumannii; assay: Antibacterial activity against Acinetobacter baumannii assessed as bacterial growth inhibition; type: functional
[6] = system: Escherichia coli; assay: Antibacterial activity against Escherichia coli AB1157 assessed as bacterial growth inhibition; type: functional
[7] = system: Enterococcus faecium; assay: Antibacterial activity against vancomycin resistant Enterococcus faecium Van M HS-08267 assessed as inhibition of bacterial growth; type: functional
[8] = system: Staphylococcus aureus; assay: Antibacterial activity against methicillin-resistant Staphylococcus aureus HS-663 assessed as bacterial growth inhibition; type: functional
[9] = system: Enterococcus faecium; assay: Antibacterial activity against vancomycin resistant Enterococcus faecium Van A HS-06188 assessed as inhibition of bacterial growth; type: functional
[10] = system: Staphylococcus aureus; assay: Antibacterial activity against methicillin-susceptible Staphylococcus aureus Newman assessed as bacterial growth inhibition; type: functional
[11] = system: L02; assay: Cytotoxicity against human L02 cells assessed as reduction in cell viability >= 12.5 uM; type: cell-based
[12] = system: Staphylococcus aureus; assay: Antibacterial activity against vancomycin-intermediate Staphylococcus aureus Mu50 assessed as bacterial growth inhibition; type: functional
[13] = system: Enterococcus faecium; assay: Potency index, ratio of Vancomycin MIC to test compound MIC for antibacterial activity against vancomycin resistant Enterococcus faecium Van A HS-06188 assessed as inhibition of bacterial growth; type: functional
[14] = system: Enterococcus faecium; assay: Potency index, ratio of Vancomycin MIC to test compound MIC for antibacterial activity against vancomycin resistant Enterococcus faecium Van M HS-08267 assessed as inhibition of bacterial growth; type: functional
[15] = system: Staphylococcus aureus; assay: Potency index, ratio of Vancomycin MIC to test compound MIC for antibacterial activity against methicillin-susceptible Staphylococcus aureus Newman assessed as bacterial growth inhibition; type: functional
[16] = system: Staphylococcus aureus; assay: Potency index, ratio of Vancomycin MIC to test compound MIC for antibacterial activity against vancomycin-intermediate Staphylococcus aureus Mu50 assessed as bacterial growth inhibition; type: functional
[17] = system: Enterococcus faecium; assay: Potency index, ratio of Vancomycin MIC to test compound MIC for antibacterial activity against vancomycin resistant Enterococcus faecium Van B V(R) assessed as inhibition of bacterial growth; type: functional
[18] = system: Enterococcus faecium; assay: Potency index, ratio of Vancomycin MIC to test compound MIC for antibacterial activity against vancomycin resistant Enterococcus faecium Van M HS-0847 assessed as inhibition of bacterial growth; type: functional

Row | Structure (SMILES) | MIC [1] [mg/L] | MIC [2] [mg/L] | MIC [3] [mg/L] | MIC [4] [mg/L] | MIC [5] [mg/L] | MIC [6] [mg/L] | MIC [7] [mg/L] | MIC [8] [mg/L] | MIC [9] [mg/L] | MIC [10] [mg/L] | Activity [11] | MIC [12] [mg/L] | Ratio [13] | Ratio [14] | Ratio [15] | Ratio [16] | Ratio [17] | Ratio [18]
1 | CN[C@H](CC(C)C)C(=O)N[C@H]1C(=O)N[C@@H](CC(N)=O)C(=O)N[C@H]2C(=O)N[C@H]3C(=O)N[C@H](C(=O)N[C@H](C(=O)N[C@@H](CCCNC(=N)N)C(=O)O)c4cc(O)cc(O)c4-c4cc3ccc4O)[C@H](O)c3ccc(c(Cl)c3)Oc3cc2cc(c3O[C@@H]2O[C@H](CO)[C@@H](O)[C@H](O)[C@H]2O[C@H]2C[C@](C)(N)[C@H](O)[C@H](C)O2)Oc2ccc(cc2Cl)[C@H]1O | 64 (≈ 39.9 µM) | 4 (≈ 2.49 µM) | > 128 | 128 (≈ 79.7 µM) | > 128 | > 128 | 128 (≈ 79.7 µM) | 0.5 (≈ 0.311 µM) | 128 (≈ 79.7 µM) | 8 (≈ 4.98 µM) | Toxic | 64 (≈ 39.9 µM) |  |  |  |  |  | 
2 | CN[C@H](CC(C)C)C(=O)N[C@H]1C(=O)N[C@@H](CC(N)=O)C(=O)N[C@H]2C(=O)N[C@H]3C(=O)N[C@H](C(=O)N[C@H](C(=O)NNCc4ccc(-c5ccccc5)cc4)c4cc(O)cc(O)c4-c4cc3ccc4O)[C@H](O)c3ccc(c(Cl)c3)Oc3cc2cc(c3O[C@@H]2O[C@H](CO)[C@@H](O)[C@H](O)[C@H]2O[C@H]2C[C@](C)(N)[C@H](O)[C@H](C)O2)Oc2ccc(cc2Cl)[C@H]1O | 4 (≈ 2.45 µM) | 0.5 (≈ 0.307 µM) | 8 (≈ 4.91 µM) | 8 (≈ 4.91 µM) | 64 (≈ 39.3 µM) | 64 (≈ 39.3 µM) | 4 (≈ 2.45 µM) | < 0.0625 | 8 (≈ 4.91 µM) | ≤ 0.0625 |  | 1 (≈ 0.614 µM) | 8 | 8 | 32 | 2 | 8 | 8
3 | CN[C@H](CC(C)C)C(=O)N[C@H]1C(=O)N[C@@H](CC(N)=O)C(=O)N[C@H]2C(=O)N[C@H]3C(=O)N[C@H](C(=O)N[C@H](C(=O)N/N=C/c4ccc(-c5ccccc5)cc4)c4cc(O)cc(O)c4-c4cc3ccc4O)[C@H](O)c3ccc(c(Cl)c3)Oc3cc2cc(c3O[C@@H]2O[C@H](CO)[C@@H](O)[C@H](O)[C@H]2O[C@H]2C[C@](C)(N)[C@H](O)[C@H](C)O2)Oc2ccc(cc2Cl)[C@H]1O | 2 (≈ 1.23 µM) | 0.25 (≈ 0.154 µM) | 4 (≈ 2.46 µM) | 4 (≈ 2.46 µM) | > 128 | 128 (≈ 78.6 µM) | 2 (≈ 1.23 µM) | 0.0625 (≈ 0.0384 µM) | 4 (≈ 2.46 µM) | ≤ 0.0625 |  | 2 (≈ 1.23 µM) | 8 | 8 | 32 | 2 | 8 | 8
4 | CN[C@H](CC(C)C)C(=O)N[C@H]1C(=O)N[C@@H](CC(N)=O)C(=O)N[C@H]2C(=O)N[C@H]3C(=O)N[C@H](C(=O)N[C@H](C(=O)NNCc4ccc(-c5ccc(C(F)(F)F)cc5)cc4)c4cc(O)cc(O)c4-c4cc3ccc4O)[C@H](O)c3ccc(c(Cl)c3)Oc3cc2cc(c3O[C@@H]2O[C@H](CO)[C@@H](O)[C@H](O)[C@H]2O[C@H]2C[C@](C)(N)[C@H](O)[C@H](C)O2)Oc2ccc(cc2Cl)[C@H]1O | 4 (≈ 2.36 µM) | 0.5 (≈ 0.295 µM) | 8 (≈ 4.71 µM) | 4 (≈ 2.36 µM) | 64 (≈ 37.7 µM) | > 128 | 2 (≈ 1.18 µM) | 0.0625 (≈ 0.0368 µM) | 8 (≈ 4.71 µM) | 1 (≈ 0.589 µM) |  | 2 (≈ 1.18 µM) | 8 | 8 |  |  | 8 | 8
5 | CN[C@H](CC(C)C)C(=O)N[C@H]1C(=O)N[C@@H](CC(N)=O)C(=O)N[C@H]2C(=O)N[C@H]3C(=O)N[C@H](C(=O)N[C@H](C(=O)N/N=C/c4ccc(-c5ccc(Cl)cc5)cc4)c4cc(O)cc(O)c4-c4cc3ccc4O)[C@H](O)c3ccc(c(Cl)c3)Oc3cc2cc(c3O[C@@H]2O[C@H](CO)[C@@H](O)[C@H](O)[C@H]2O[C@H]2C[C@](C)(N)[C@H](O)[C@H](C)O2)Oc2ccc(cc2Cl)[C@H]1O | 8 (≈ 4.81 µM) | 0.5 (≈ 0.301 µM) | 4 (≈ 2.41 µM) | 4 (≈ 2.41 µM) | > 128 | 128 (≈ 77 µM) | 4 (≈ 2.41 µM) | 0.0625 (≈ 0.0376 µM) | 16 (≈ 9.63 µM) | 0.5 (≈ 0.301 µM) |  | 2 (≈ 1.2 µM) | 8 | 8 | 4 | 2 | 8 | 8
